Source: patent US20220160712A1, “METHODS OF TREATING RHEUMATOID ARTHRITIS AND FOR PREDICTING THE RESPONSE TO METHOTREXATE” (CHAN ZUCKERBERG BIOHUB, INC., priority 2020, published 2022)

Experiments:
[1] = tested on: human gut bacterial isolates; assay: In vitro bacterial growth studies (MIC, growth curves) on a panel of 45 isolates; assay type: cell-based
Text: 42/45 of the tested isolates are commonly found in the human gut microbiota, with the exceptions of Bacteroides acidifaciens (found in mice), Delftia acidovorans (found in soil), and Bacillus subtilis 168 (found in soil). Each of these strains was obtained from the Deutsche Sammlung von Mikroorganismen and Zellkulturen (DSMZ) culture collection. A single colony of each isolate was subcultured in Bacto Brain Heart Infusion (BD Biosciences, 37 g/L) supplemented with L-cysteine-HCl (0.05%, w/v), menadione (1 μg/mL), and hemin (5 μg/mL) (referred to hereafter as BHI+) for 48 hours in an anaerobic chamber (Coy Laboratory Products) at 37° C. with an atmosphere composed of 2-3% H2, 20% CO2, and the balance N2. This subculture was diluted down to an OD600 of 0.08-0.1, which was then further diluted 100-fold, and then used to inoculate a microtiter plate with 2-fold serial dilutions of MTX concentrations ranging from 0-900 μg/ml. Plates were incubated at 37° C. with shaking in an Eon Microplate Spectrophotometer (BioTek Instruments, Inc) over a 48 to 72-hour period in the anaerobic chamber. Growth was monitored every 15 minutes at OD600 and corrected for background (no growth control). Data were exported using the Gen5 (v 2.0) software. […] As with any in vitro system, the growth of cells may be dependent on the growth medium used, and for these studies, a rich medium (BHI+) was used.
Growth parameters (carrying capacity, time to mid-exponential and growth rate) were calculated in R using GrowthCurveR (Sprouffske, K., and Wagner, A. (2016), BMC Bioinformatics 17, 1726) (v0.2.1). Curves that could not be fit by the software (i.e., generated a warning/error message) were excluded from further analysis. […] Determination of dose-dependency was done by fitting a linear regression with methotrexate concentration as the independent variable and the estimated growth parameter as the dependent variable using lm from the stats package (v3.5.1). For rescue studies, as above, growth parameters (carrying capacity, time to mid-exponential, growth rate, and area under the curve) were calculated in R using GrowthCurveR (Sprouffske and Wagner, 2016) (v0.2.1). Four isolates were evaluated with varying sensitivity to MTX (B. thetaiotaomicron, B. vulgatus, C. innocuum and C. symbiosum). C. asparagiforme was excluded because rescue of growth would be difficult to identify in this MTX resistant strain (FIG. 2D). Growth curves at 9 concentrations of MTX tested against 7 concentrations of folic acid were measured. Determination of dose-dependency at each tested concentration of MTX was done by fitting a linear regression with folic acid or leucovorin concentration as the independent variable and the estimated growth parameter as the dependent variable using lm from the stats package (v3.5.1). […] A p-value cutoff of p<0.05 was used to identify effects that were dose-dependent based on the linear regression.

[2] = tested on: B. theta and C. asparagiforme; assay: Untargeted metabolomics of in vitro cultures; assay type: cell-based, Bacteroides thetaiotaomicron; Clostridium asparagiforme
Description: As described in the in vitro bacterial growth studies, 48-hour overnight cultures were grown in an anaerobic chamber in liquid BHI+for the following isolates: Bacteroidetes thetaiotaomicron and Clostridium asparagiforme. Each subculture was diluted down to an OD600 of 0.08-0.1, which was then further diluted 100-fold, and then used to inoculate a 96-well 2-ml deep well plate with 100 μg/ml MTX (n=6 replicates per isolate) (Sigma, Cat #M9929) or DMSO (n=2 replicates per isolate). After 24 hours, aliquots were removed, centrifuged on a tabletop centrifuge at 4° C. for 5 minutes at ˜2000 rcf, and supernatant was prepared for extraction and untargeted LC-MS as described.
Extraction was done in 96 well plates. In brief, 60 μL of the supernatant from the 96 well culture plate was added to 120 μL of pre-cooled methanol/acetonitrile (1:1, v/v) in a non-sterile 96 well plate. The samples were then incubated at −20° C. for 1 hour. After incubation, samples were mixed at 4° C. at 650 rpm using small block tube shaker. The plates were then centrifuged at 3000 rpm for 10 minutes. After centrifugation, using multi-channel pipette, 80 μL of supernatant from each well was transferred to non-sterile 96 well polypropylene plate and then sealed with pre-slit silicone mat. A 1:1:1 mix of LC-MS grade H2O, LC-MS grade acetonitrile and LC-MS grade methanol was used as blank.
Samples (5 μl) were separated by hydrophilic interaction chromatography HPLC using a Vanquish UHPLC system (Thermo Fisher Scientific, Waltham, MA) with a Waters (Milford, MA) Acquity UPLC BEH Amide Column (2.1×100 mm×1.7 μm particle size) maintained at 65° C. and a 17 minute gradient, at a flow rate of 400 μl/min. […]
The raw data were converted into mzML format using ProteoWizard v3.0. Converted HILIC files were then analyzed using MS-DIAL v4.16 for deconvolution, peak detection, alignment, and identification (Parameters file can be provided upon request). […]

[3] = MTX 1 mg/kg or 50 mg/kg daily, short treatment durations (2-4 days)
Description: C57BL/6J mice (females, ages 6-16 weeks) were obtained from the UCSF Gnotobiotics core facility (gnotobiotics.ucsf.edu) and housed in gnotobiotic isolators for the duration of each experiment (Class Biologically Clean). […] Housing: Mice were co-housed in some experiments, distributed across multiple cages per treatment group, or individually housed. Individually housed mice were housed in Single Mouse Duplexed Cages (Thoren, Cat #15). Colonization: Mice were colonized with stool from human donors, either a healthy male donor or a treatment-naive (re-MTX) female and male donors with rheumatoid arthritis [as defined by American College of Rheumatology classification criteria, either (Arnett, F. C., et al. (1988), Arthritis Rheum 31, 315-324) or (Aletaha, D., et al. (2010), Arthritis Rheum 62, 2569-2581)]; samples obtained 1 month after starting MTX were used for “post-MTX” transplants. For colonization with a human microbiome, stool was diluted 1:10 g/mL in reduced PBS or saline and homogenized in an anaerobic chamber using pre-equilibrated reagents and supplies. Insoluble material was separated from supernatant by centrifugation at 50 g for 1 minute. Aliquots of supernatant (100-200 μl per mouse) were gavaged into mice. […] Mice were monitored and weighed daily during treatment. […]

[4] = MTX 100 μg/ml, 24 hours, padj<0.01, two-factor ANOVA with BH correction

Q: Which results are given for `CN(Cc1cnc2nc(N)nc(N)c2n1)c1ccc(C(=O)N[C@@H](CCC(=O)O)C(=O)O)cc1` [MTX, methotrexate]?
A: percentage of tested isolates inhibited at the estimated concentration in the proximal GI tract ([1]; 22-220 μM or 10-100 μg/ml MTX, 5-15 of 45 isolates): 11-33%; Minimal inhibitory concentration (MIC) ([1]; 45 isolates, MTX 1.7-900 μg/ml, 2-2,000 μM, 48 hours, BHI+, anaerobic): ranged across the full gradient; number of isolates resistant to the maximum concentration tested ([1]; 45 isolates, maximum 900 μg/ml, 48 hours): 11; sensitivity of Bacteroidetes relative to the other phyla ([1]; MICs of isolates spanning 4 major phyla (FIG. 2B)): tended to be sensitive; isolates with full growth inhibition or alterations in growth curve parameters ([1]; MTX concentrations predicted to be found in the human gut, 36/45 isolates): 80%; percentage of tested isolates with at least one growth parameter affected in a dose-dependent manner ([1]; sub-MIC concentrations, subset of strains with growth curves): 78%; levels of AMP, adenine, hypoxanthine and guanine relative to vehicle control ([2]; C. asparagiforme, 24 hours of treatment, AMP decreased, the rest increased, Wilcoxon rank sum): these differences were not statistically significant; number of metabolic features that changed similarly in the two isolates [2, 4]: 418; number of metabolic features that differed by species [2, 4]: 220; weight loss [3]: minimal weight loss
